Laboratory results: US6841718B2 (priority 2000, dated 2005)

Test system: bacteria, yeast, algal and fungal spores, and invertebrate larvae
Test: attachment of organisms

O=C(O)C=Cc1ccc(OS(=O)(=O)O)cc1 [Zosteric acid, para-(sulphooxy) cinnamic acid]
attachment of a wide range of organisms: inhibits attachment
